These results are taken from a melting point compilation (Tetko et al.; mined from patent text by program, amines drawn as free bases though some values may be those of a salt).

Bounds are passed on as bounds.

In general, melting point refers to the temperature of the solid-liquid transition.

As to `CC(C)(C)OC(=O)NCCCc1ccc2c(n1)NCCC2`, the melting point was in the range of 95.2 to 96.3 °C. For `S=C=Nc1ccc2sc(-c3cccs3)nc2c1`, the melting point fell in the range of 147 to 149 °C. The same measure for `COc1ccc(S(=O)(=O)N(CC(N)=O)c2ccc(Cl)cc2C(C)c2ccccc2Cl)cc1OC` (stereo not given): 150 °C; for `COc1ccc(CN2C(=O)C3(COc4cc(OC(F)(F)F)ccc43)c3ccccc32)cc1` (stereo not given): 82 to 84 °C; for `O=C(O)c1cccc2c1CCCC2O` (stereo not given): 160 to 162 °C. Take `c1cc(-c2ccn3cnnc3c2)ccn1`: the melting point is 194 to 196 °C. For `CCCC1=C(C(=O)OCC)C(c2ccccc2Cl)c2cn(C(=O)c3ccccc3)nc2N1` (stereo not given), the melting point fell in the range of 119 to 121 °C. The same measure for `COc1cc2ccoc2cc1N1CCN(CC2Cc3ccccc3C2)CC1`: 188 to 192 °C; for `O=C(Nc1ccc2cc(CN3CCCC3)cnc2c1F)c1ccc(-c2ccc(F)cc2)cc1`: 178 °C; for `CCCC(=O)Nc1c(C)cccc1C`: 134 to 136 °C. `O=C(Cc1ccccc1Nc1c(Cl)cccc1Cl)OCCOCCOCCO[N+](=O)[O-]` yielded a melting point of 68 °C.

As for `CCOC(=O)c1cc(=O)c2c(OCC(O)COc3ccc(OC)cc3)cccc2o1` (stereo not given), the melting point fell in the range of 135 to 136 °C. As to `O=C(O)[C@H](Cc1ccc(C(F)(F)F)cc1)[C@@H](O)c1cccc2ccccc12` (racemic), the melting point was in the range of 151 to 152 °C. The molecule `CCCCN(Cc1ccc(-c2ccccc2-c2nnn[nH]2)cc1)c1ncc(C(=O)OCC)s1` had a melting point of 65 to 70 °C.

As to `O=C(NN=Cc1ccccc1O)c1cc2ccccc2cc1O`, the melting point was greater than 285 °C. In turn, `O=C(O)C(=O)c1ccc(F)c(Br)c1` had a melting point of 68 to 73 °C. The same measure for `C#CCOCCOC(=O)COc1ccc(Cl)c2cccnc12`: 53 °C; for `CC1Cc2ccccc2P1c1ccccc1P(c1ccccc1)c1ccccc1` (single isomer, unassigned; (+)): 40 to 42 °C. As to `O=C1c2ccc(O)cc2C(=O)N1c1cccc(O)c1`, the melting point was 270 °C. On to `CCN(CC)C(=O)Cc1c(-c2ccc(O)cc2)nn2c(C)cc(C)nc12`, for which the melting point was in the range of 242 to 247 °C. `COc1ccc(C(=O)C2CCN(C3CN(C(=O)c4ccccc4)CCC3O)CC2)cc1` (stereo not given): the melting point fell in the range of 114 to 115 °C.

Regarding `CCOC(=O)c1cc(Br)c(C(=O)OCC)cc1Cl`, the melting point came to 125 °C. For the molecule `O=C(O)CCN1CCCCC1=O`, the melting point was in the range of 105 to 110 °C. In turn, `COC(=O)c1ccc(OC)c(O)c1O` showed a melting point of 100 to 101 °C. Turning to `CN(C)CCn1c(-c2ccc(Cl)cc2)cc2c1CCSC2`, the melting point lay in the range of 91.5 to 92.5 °C. As to `CC(C)(O)C#Cc1ccc2[nH]ccc2c1`, the melting point was 119 to 123 °C. `Cc1c(C)c2c(c(C)c1NC(=O)CC(C)(C)C)C(c1ccccn1)C(C)(C)O2` (stereo not given) came in with a melting point of 210 to 212 °C.

`CC(C)(COc1c(-c2ccccc2)c(=O)oc2ccccc12)CN1CCOCC1` showed a melting point of 167 °C.

In turn, `CCc1cc(C(C)O)nn1-c1ccc([N+](=O)[O-])cc1` (stereo not given) gave a melting point of 127 to 128 °C. In the case of `CCN1CCC(=O)N(c2ccccc2F)C1=S` it was 101 to 104 °C. As for `CS(=O)(=O)Nc1ccc(Cn2ncc(Cl)c(Cl)c2=O)cc1`, the melting point was in the range of 152 to 154 °C. `CC1(C(=O)O)OC2CCCCC2NC1=O` (stereo not given) had a melting point of 142 to 144 °C.

Regarding `CNCCc1ccc2[nH]nc(S(=O)(=O)c3ccccc3)c2c1`, the melting point is 42 °C. Turning to `CS(=O)(=O)c1ccc(-c2cc(=O)cc(C(=O)O)o2)cc1`, the melting point lay within 269 to 271 °C. In the case of `COc1cccc(CNc2nccc(-c3cc(N4CCN(CCCN5CCCCC5)CC4)c4cc(OC)ccc4c3)n2)c1`, the melting point is 63 to 75 °C.

The molecule `CCCC(=O)c1cnc2c(OCCOCCO)cccc2c1Nc1ccccc1C` displayed a melting point of 144 to 146 °C. Take `CCCCc1nc(I)c(C=O)n1Cc1ccc(C(=O)OC)c2ccccc12`: the melting point lay in the range of 178 to 179 °C.

`Nc1cccc(F)c1C(=O)NCC(=O)O` yielded a melting point of 188 to 192 °C.

With `CC(=O)O[C@H]1[C@H](OC(C)=O)[C@@H](CCl)OC[C@@H]1OC(C)=O`, the melting point lay in the range of 129 to 131 °C. As to `Cn1c(=O)c(C(=O)O)c(-c2ccccc2Cl)c2ccncc21`, the melting point was greater than 250 °C. In the case of `CCOC(C)O[C@H]1C(=O)N(C(=O)OCc2ccccc2)[C@H]1c1ccccc1` (stereo not given in full) it was 58 to 60 °C. In turn, `O=C(CCCCl)c1cc2c(s1)C(=O)NCCC2` returned a melting point of 163 to 165 °C. Regarding `COc1c(Cl)cc(F)cc1C1OC(=O)NC1=O` (stereo not given), the melting point was 177 to 179 °C.

`COc1cc(Nc2c(C#N)cnc3cc4cc(OCCN5CCC(O)CC5)c(OC)cc4cc23)c(Cl)cc1C` gave a melting point of 210 to 215 °C. `CC(Cc1ccc(C2=NNC(=O)CC2)cc1)NCC(O)c1cccc(Cl)c1` (stereo not given) yielded a melting point of 49 to 50 °C. In the case of `COc1cc(C=O)ccc1OCc1nc(-c2cccnc2)oc1C` it was 164 to 165 °C; in that of `O=c1cc(CO)nc2ccn(-c3ccccc3)n12`, 241 to 242 °C. `C=CCNC(=O)N1CC(Sc2ccc(Cl)cc2)C1` gave a melting point of 88 to 89 °C.

On to `NC(=O)C1(O)c2ccccc2S(=O)(=O)N1Cc1ccc(Br)cc1F` (stereo not given), for which the melting point was 182 to 184 °C. For `NNC(=O)Nc1ccc(-n2ncn(-c3ccc(OCC(F)(F)C(F)F)cc3)c2=O)cc1`, the melting point was greater than 350 °C. On to `COC(=O)C(=O)c1ccc(OCCOc2cc(OC)c(OC)c(OC)c2)cc1`, for which the melting point fell in the range of 82 to 83 °C. The molecule `COc1ccc2ccccc2c1CC#N` had a melting point of 95.2 to 95.6 °C. `Cc1cccc(C)c1NC(=O)N1CCCN(C(C)C)C1` came in with a melting point of 138 to 139 °C.

`COc1ccc(-c2ccc3c(c2)NC(=O)CC(c2cccc(-n4ccnc4)c2)=N3)cc1` registered a melting point of 207 to 208 °C. Turning to `NS(=O)(=O)c1ccccc1S(=O)(=O)NC1CC1`, the melting point lay in the range of 202 to 203 °C. As for `Cc1ccc2c(c1)C(c1ccccc1)(C(F)(F)F)c1cc(C)ccc1O2`, the melting point is 150 to 151 °C. For the molecule `O=C(Nc1ccccc1S(=O)(=O)c1ccccc1)N[C@@H](Cc1ccc(NC(=O)c2c(Cl)cccc2Cl)cc1)C(=O)O`, the melting point came out at 227 °C. The same measure for `COc1cc(-c2n[nH]c(N=C(c3ccccc3)c3ccccc3)n2)c(OC)cc1C`: 228 °C. On to `CC(O)c1cn(C(c2ccccc2)(c2ccccc2)c2ccccc2)cn1` (stereo not given), for which the melting point lay within 156 to 157 °C.

Turning to `C=CCSc1nc(N)nc2c1ncn2[C@@H]1C[C@H](CO)[C@@H](O)C1`, the melting point is 133 to 134 °C. Regarding `Cn1c2c(c3cccc(F)c31)C(=O)CCC2`, the melting point was 126 to 128 °C.

The molecule `Cc1c(NC(=O)c2ccc(-c3ccc(OC(F)(F)F)cc3)cc2F)ccc2cc(CN3CCCC3)cnc12` gave a melting point of 175 to 178 °C. The molecule `CCCN1CC=C(c2c[nH]c3ccc(OC)cc23)CC1` returned a melting point of 164 °C. `O=C1c2ccccc2C(O)N1CCCCSc1ccncc1` (stereo not given) displayed a melting point of 144 to 145 °C.

`C#CCN(c1ccc(C(=O)NC(CCC(=O)NC(CCC(=O)O)C(=O)O)C(=O)O)cc1)C1CCc2cc3nc(CO)[nH]c(=O)c3cc21` (stereo not given): the melting point was found to be 172 °C. Turning to `O=C(CCc1ccc(NC(=O)C(F)(F)F)c([N+](=O)[O-])c1)N1CCCCC1`, the melting point lay in the range of 102 to 103 °C. The same measure for `CC1(C)OC(=O)C(C(=O)Cc2cc(F)c(F)cc2F)C(=O)O1`: 102 to 104 °C.

Regarding `OC(c1ccc2c(c1)CCCN2)(C(F)(F)F)C(F)(F)F`, the melting point is 115 to 116 °C. Molecule `Cc1c(F)c(F)cc2c(=O)c(C(=O)O)cn(C3CC3)c12` came in with a melting point of 240 to 243 °C. In turn, `Cc1cc(C)nc(Oc2ccc(-c3ccn(CC4CC4)c(=O)c3C#N)c(F)c2)c1` registered a melting point of 137 °C. In turn, `CC(C)(C)NC(=O)N(C=O)Oc1cc(Cl)ccc1Cl` had a melting point of 101 to 102 °C. The molecule `Cc1nc(N2CCN(Cc3ccccc3C(=O)O)C2=O)sc1C(=O)NCc1ccccc1` returned a melting point of 153 to 156 °C. In turn, `CC(N)c1nc2cccc(Cl)c2c(=O)n1-c1cc(F)cc(F)c1` (stereo not given) came in with a melting point of 200 to 202 °C. With `CC(=O)N1CCc2ccc(C(=O)CCCC3CCN(Cc4ccccc4Cl)CC3)cc2CC1`, the melting point fell in the range of 99 to 100 °C.

Regarding `Cc1ccc(S(N)(=O)=O)cn1`, the melting point lay within 151 to 155 °C. `O=C(NCc1ccc(Br)cc1F)c1ccc(Br)cc1[N+](=O)[O-]` gave a melting point of 192 to 193 °C.

In turn, `Nc1ccc(OCC(=O)OCCO)cc1` showed a melting point of 104 to 106 °C. `O=C1C2=C(CCCC2)C(Sc2ccccc2)N1c1ccc(Cl)cc1F` (stereo not given) came in with a melting point of 86 to 87 °C.

On to `CCOC(=O)COc1c(CC=C(C)C)c(OC)cc(OC)c1C(=O)C=Cc1ccc(OC)cc1`, for which the melting point was in the range of 85 to 86 °C. In the case of `CC(C)(C)Oc1ccc2cc(C=O)ccc2c1` it was 51 to 52 °C; in that of `COC(=O)c1cccc2c(I)c(OC)ccc12`, 98 to 99 °C; in that of `CCCOc1ccc(-c2ccc3c(c2)C(C)(C)CCC3(C)C)cc1-c1ccc(C(=O)O)cc1`, 199 to 204 °C. Consider `CC(=O)NCC1CN(c2cc(F)c(N3CCN(C(=O)COC(=O)c4cccnc4)CC3)c(F)c2)C(=O)O1` (stereo not given), for which the melting point was 213 to 214 °C. `CCOC(=O)c1ncn2c1CN(C)C(=O)c1ccccc1-2` yielded a melting point of 163 to 165 °C.

The molecule `C#Cc1ccc(-c2[nH]c(=O)c3cc(OC)ccc3c2[N+](=O)[O-])cc1` had a melting point of 246 to 248 °C. For `O=C(Nc1ccc(C(=O)N2Cc3ccccc3-c3ccccc32)cc1)c1ccc(Cl)c(Cl)c1`, the melting point fell in the range of 94 to 95 °C. In the case of `Cc1nc2c(N)cc(Br)cc2n1O`, the melting point lay in the range of 257 to 258 °C. `CCOC(=O)c1ccc2nc3sc(C(C)C)cc3c(=O)n2c1` gave a melting point of 122 to 123 °C. In the case of `O=C(Nc1ccccc1N1CCc2ccccc21)c1ccncc1`, the melting point was in the range of 120 to 121 °C. In turn, `Cc1n[nH]c(C)c1C(=O)Nc1ccccc1` registered a melting point of 244 to 245 °C.
